System: CGS 21680-induced catalepsy in mice
Assay: Activity on CGS 21680-induced Catalepsy
Assay type: in vivo, mouse (male ddY)
Conditions: 10 mg/kg oral; for Total score (catalepsy): 10 animals, maximum 50 points, control 48; for Number of Animals showing remission: catalepsy score 4 points or less in 10 cases; for inhibition in vivo at 10 mg/kg: Mus musculus, CGS 21680-induced catalepsy, read-out: Remission ratio (%)
Protocol: Activity on CGS 21680-induced Catalepsy
Parkinson's disease is motor deficit based on the degeneration and cell death of the nigrostriatal dopaminergic neuron. […] [Journal of Neuroscience, 16: 605 (1996)]. Accordingly, it is considered that adenosine A2A receptor agonists positively regulate the output of the striopallidal GABAergic neurons and, as a result, catalepsy is induced by the administration of CGS 21680.
This test was carried out using 10 animals per group of male ddY mice of 5 week age (22 to 25 g in body weight, Japan SLC). CGS 21680 (manufactured by RBI) was dissolved in a physiological saline (manufactured by Otsuka Pharmaceutical), and 10 μg/20 μl of the solution was injected into mouse intracerebro-ventricle. Test compounds were used by suspending them in distilled water containing 0.3% of polyoxyethylene(20)sorbitan monooleate (hereinafter referred to as "Tween 80") (manufactured by Otsuka Pharmaceutical). […] One hour after the administration of the test compound, only forelimbs or only hindlimbs of each animal were laid on a vertically arranged stand made of acryl, having a size of 4.5 cm in height and 1.0 cm in width, to measure catalepsy symptoms. All of the compounds were administered orally in a dose of 10 mg/kg.
The effect was judged by total catalepsy scores of 10 animals in one group (the maximum is 50 points). When the total score was 40 points or less, the activity of drugs was judged positive. The number of animals showing remission of catalepsy was expressed by the number of cases in which the catalepsy score was 4 points or less in 10 cases. The catalepsy remission ratio was expressed as the percentage of the total score in the test compound-administered group to the total score in the control group.

| Compound | Total score (catalepsy) | Number of Animals showing remission | inhibition in vivo at 10 mg/kg [%] |
| --- | --- | --- | --- |
| CCC(C)N1CCN(c2cc3nc(-c4ccco4)nn3c(N)n2)CC1 (racemic) [Compound 140, (±)-5-Amino-2-(2-furyl)-7-(4-(1-methylpropyl)piperazinyl)[1,2,4]triazolo[1,5-c]pyrimidine] | 13 | 10 | 74 |
| CCN1CCN(c2cc3nc(-c4ccco4)nn3c(N)n2)CC1 [Compound 60, 5-Amino-7-(4-ethylpiperazinyl)-2-(2-furyl)[1,2,4]triazolo[1,5-c]pyrimidine] | 10 | 8 | 76 |
| Nc1nc(N2CCN(CCO)CC2)cc2nc(-c3ccco3)nn12 [Compound 62, 5-Amino-2-(2-furyl)-7-[4-(2-hydroxyethyl)piperazinyl][1,2,4]triazolo[1,5-c]pyrimidine] | 4 | 10 | 88 |
| Nc1nc(N2CCN(c3ncccn3)CC2)cc2nc(-c3ccco3)nn12 [Compound 64, 5-Amino-2-(2-furyl)-7-[4-(2-pyrimidyl)piperazinyl][1,2,4]triazolo[1,5-c]pyrimidine] | 5 | 10 | 88 |
| COCCN1CCN(c2cc3nc(-c4ccco4)nn3c(N)n2)CC1 [Compound 74, 5-Amino-7-[4-(2-methoxyethyl)piperazinyl]-2-(2-furyl)[1,2,4]triazolo[1,5-c]pyrimidine] | 0 | 10 | 98 |
| Nc1nc(N2CCN(c3nc4ccccc4s3)CC2)cc2nc(-c3ccco3)nn12 [Compound 95, 5-Amino-7-(4-(2-benzothiazolyl)piperazinyl)-2-(2-furyl)[1,2,4]triazolo[1,5-c]pyrimidine] | 16 | 8 | 66 |
| COCCOCCN1CCN(c2cc3nc(-c4ccco4)nn3c(N)n2)CC1 [Compound 104, 5-Amino-2-(2-furyl)-7-(4-(2-(2-methoxyethoxy)ethyl)piperazinyl)[1,2,4]triazolo[1,5-c]pyrimidine] | 4 | 10 | 92 |
| C=CCCN1CCN(c2cc3nc(-c4ccco4)nn3c(N)n2)CC1 [Compound 125, 5-Amino-2-(2-furyl)-7-(4-homoallylpiperazinyl)[1,2,4]triazolo[1,5-c]pyrimidine] | 13 | 10 | 74 |
| Nc1nc(N2CCN(CCCCF)CC2)cc2nc(-c3ccco3)nn12 [Compound 128, 5-Amino-7-(4-(4-fluorobutyl)piperazinyl)-2-(2-furyl)[1,2,4]triazolo[1,5-c]pyrimidine] | 9 | 10 | 80 |
| CC(C)CN1CCN(c2cc3nc(-c4ccco4)nn3c(N)n2)CC1 [Compound 136, 5-Amino-2-(2-furyl)-7-(4-(2-methylpropyl)piperazinyl)[1,2,4]triazolo[1,5-c]pyrimidine] | 1 | 10 | 98 |
| CC(C)N1CCN(c2cc3nc(-c4ccco4)nn3c(N)n2)CC1 [Compound 139, 5-Amino-2-(2-furyl)-7-(4-isopropylpiperazinyl)[1,2,4]triazolo[1,5-c]pyrimidine] | 10 | 9 | 80 |
| Nc1nc(N2CCN(Cc3csnn3)CC2)cc2nc(-c3ccco3)nn12 [Compound 143, 5-Amino-2-(2-furyl)-7-(4-(1,2,3-thiadiazol-4-ylmethyl)piperazinyl)-2-(2-furyl)[1,2,4]triazolo[1,5-c]pyrimidine] | 0 | 10 | 98 |
| Cc1ncc(CN2CCN(c3cc4nc(-c5ccco5)nn4c(N)n3)CC2)s1 [Compound 145, 5-Amino-2-(2-furyl)-7-(4-(2-methylthiazol-5-ylmethyl)piperazinyl)[1,2,4]triazolo[1,5-c]pyrimidine] | 3 | 10 | 92 |
| Nc1nc(N2CCN(Cc3ccsc3)CC2)cc2nc(-c3ccco3)nn12 [Compound 146] | 3 | 10 | 94 |
| Nc1ncc(C=O)c2nc(-c3ccco3)nn12 [Compound 163, 5-Amino-8-formyl-2-(2-furyl)[1,2,4]triazolo[1,5-c]pyrimidine] | 3 | 10 | 94 |
| Nc1ncc(C(=O)N2CCCCC2)c2nc(-c3ccco3)nn12 [Compound 175] | 12 | 10 | 74 |
| Nc1ncc(C(=O)N2CCOCC2)c2nc(-c3ccco3)nn12 [Compound 177] | 13 | 9 | 72 |
| Nc1nc(SCc2ccncc2)cc2nc(-c3ccco3)nn12 [Compound 181, 5-Amino-2-(2-furyl)-7-(4-picolylthio)[1,2,4]triazolo[1,5-c]pyrimidine] | 14 | 8 | 72 |
| COC(=O)c1ccc(CSc2cc3nc(-c4ccco4)nn3c(N)n2)cc1 [Compound 190, 5-Amino-2-(2-furyl)-7-(4-methoxycarbonylbenzylthio)[1,2,4]triazolo[1,5-c]pyrimidine] | 13 | 10 | 72 |
| Nc1nc(SCc2ccccc2Cl)cc2nc(-c3ccco3)nn12 [Compound 200, 5-Amino-7-(2-chlorobenzylthio)-2-(2-furyl)[1,2,4]triazolo[1,5-c]pyrimidine] | 14 | 9 | 70 |
| Nc1nc(SCc2ccccc2F)cc2nc(-c3ccco3)nn12 [Compound 201, 5-Amino-7-(2-fluorobenzylthio)-2-(2-furyl)[1,2,4]triazolo[1,5-c]pyrimidine] | 10 | 10 | 78 |
| Nc1nc(SCc2ccccc2C=O)cc2nc(-c3ccco3)nn12 [Compound 213, 5-Amino-7-(2-formylbenzylthio)-2-(2-furyl)[1,2,4]triazolo[1,5-c]pyrimidine] | 15 | 10 | 70 |
| Cc1c(N2CCN(CCO)CC2)nc(N)n2nc(-c3ccco3)nc12 [Compound 222, 5-Amino-2-(2-furyl)-7-(4-(2-hydroxyethyl)piperazinyl)-8-methyl[1,2,4]triazolo[1,5-c]pyrimidine] | 9 | 10 | 80 |
| COCCN1CCN(c2nc(N)n3nc(-c4ccco4)nc3c2C)CC1 [Compound 223, 5-Amino-2-(2-furyl)-7-(4-(2-methoxyethyl)piperazinyl)-8-methyl[1,2,4]triazolo[1,5-c]pyrimidine] | 15 | 9 | 68 |

Source: US6222035A, “[1,2,4] triazolo [1,5-C] pyrimidine derivatives” (Kyowa Hakko Kogyo Co., Ltd., priority 1997, dated 2001)
